Format in all cases: cell-based
One assay deals with Target C. In words: RT-qPCR canonical junction panel assay, Target C. As to conditions: gene panel, read-out: Target C IC50 (decrease in CJ mRNA levels). As to the method: (§1) Example 44: Exemplary splicing assay for monitoring expression levels of splice variants Compounds described herein were used to modulate RNA transcript abundance in cells. The expression of a target mRNA was measured by detecting the formation of an exon-exon junction in the canonical transcript (CJ). A compound mediated exon-inclusion event was detected by observing an increase in formation of a new junction with an alternative exon (AJ). Real-time qPCR assays were used to detect these splicing switches and interrogate the potency of various compounds towards different target genes. A high-throughput real time quantitative PCR (RT-qPCR) assay was developed to measure these two isoforms of the mRNA (CJ and AJ) for an exemplary gene, HTT, together with a control housekeeping gene, GAPDH or GUSB or PPIA, used for normalization. Briefly, the A673 or K562 cell line was treated with various compounds described herein (e.g., compounds of Formula (I)). After treatment, the levels of the HTT mRNA targets were determined from each sample of cell lysate by cDNA synthesis followed by qPCR.
(§2) The A673 cell line was cultured in DMEM with 10% FBS. Cells were diluted with full growth media and plated in a 96-well plate (15,000 cells in 100 µl media per well). The plate was incubated at 37° C. with 5% CO2 for 24 hours to allow cells to adhere. An 11-point 3-fold serial dilution of the compounds was made in DMSO then diluted in media in an intermediate plate. Compounds were transferred from the intermediate plate to the cell plate with the top dose at a final concentration of 10 uM in the well. Final DMSO concentration was kept at or below 0.25%. The cell plate was returned to the incubator at 37° C. with 5% CO2 for an additional 24 hours.
(§3) The K562 cell line was cultured in IMDM with 10% FBS. For K562, cells were diluted with full growth media and plated in either a 96-well plate (50,000 cells in 50 uL media per well) or a 384-well plate (8,000-40,000 cells in 45 uL media per well). An 11-point 3-fold serial dilution of the compounds were made in DMSO then diluted in media in an intermediate plate. Compound was transferred from the intermediate plate to the cell plate with the top dose at a final concentration of 10 uM in the well. Final DMSO concentration was kept at or below 0.25%. Final volume was 100 uL for 96-well plate and 50 uL for 384-well plate. The cell plate was then placed in an incubator at 37° C. with 5% CO2 for 24 hours.
(§4) The cells were then gently washed with 50 uL-100 uL cold PBS before proceeding to addition of lysis buffer. 30 uL-50 uL of room temperature lysis buffer with DNAse I (and optionally RNAsin) was added to each well. Cells were shaken/mixed thoroughly at room temperature for 5-10 minutes for lysis to take place and then 3 uL-5 uL of room temperature stop solution was added and wells were shaken/mixed again. After 2-5 minutes, the cell lysate plate was transferred to ice for RT-qPCR reaction setup. The lysates could also be frozen at ˜80° C. for later use.
(§5) In some cases, a direct lysis buffer was used. An appropriate volume of 3× lysis buffer (10 mM Tris, 150 mM NaCl, 1.5%-2.5% Igepal and 0.1-1 U/uL RNAsin, pH 7.4) was directly added to either K562 or A673 cells in media and mixed by pipetting 3 times. The plates were then incubated at room temperature with shaking/rocking for 20-50 minutes to allow for lysis to take place. After this time, the cell lysate plate was transferred to ice to set up for the RT-qPCR reactions. The lysates could also be frozen at −80° C. for later use.
(§6) To set up 10 uL RT-qPCR reactions, cell lysates were transferred to 384-well qPCR plates containing the master mix according to the table below. The plates were sealed, gently vortexed, and spun down before the run. The volumes were adjusted accordingly in some instances where the reaction was carried in 20 uL. The table below summarizes the components of the RT-qPCR reactions: […]
In general terms: In qPCR the cycle at which signal appears reflects the starting amount.

The subject of assay [1] is HTT. The experiment in a line: RT-qPCR splicing assay for HTT mRNA isoforms (canonical junction CJ and alternative junction AJ). As to conditions: A673 or K562 cell line, 24 hours treatment. As to the method:
as §1, §2, §3, §4, §5, §6

The test system of assay [2] is HTT. In words: RT-qPCR canonical junction panel assay, HTT. As to conditions: gene panel, read-out: HTT IC50 (decrease in CJ mRNA levels). The method, then:
as §1, §2, §3, §4, §5, §6

In the next assay the test system is SMN2. In words: RT-qPCR canonical junction panel assay, SMN2. As to conditions: gene panel, read-out: SMN2 IC50 (decrease in CJ mRNA levels). The method, then:
as §1, §2, §3, §4, §5, §6

The mark [3] stands for this setting: decrease in CJ mRNA levels, read-out: HTT CJ AC50.
Setting [4] is: increase in AJ mRNA, read-out: HTT AJ AC50.

Read-outs that look alike come from different tables or passages of the source.

Broadly, the IC50 is the concentration that inhibits the measured activity by half. One may read the AC50 as the midpoint of the concentration-response curve, whichever way the signal moves. With `Cc1cc(-c2cc(=O)n3cc(N4CCN(C)CC4)sc3n2)cc2cn(C)nc12` [Compound 109, 7-(2,7-dimethyl-2H-indazol-5-yl)-2-(4-methylpiperazin-1-yl)-5H-thiazolo[3,2-α]pyrimidin-5-one], the IC50 with Target C, in the assay with HTT [2] and in the assay with SMN2 was above 10 µM each time. In addition, the AC50 with HTT [1] (setting [3]) and with HTT [1] (setting [4]) was above 10 µM in each case.
For `Cc1cc(-c2cc(=O)n3nc(N4CCN(C)CC4)sc3n2)cc2cn(C)nc12` [Compound 157], the IC50 in the assay on Target C, with HTT [2] and in the assay on SMN2 was above 10 µM in each case. Moreover, the AC50 in the assay with HTT [1] (setting [3]) and in the assay with HTT [1] (setting [4]) was above 10 µM in each case.
For the compound `Cc1cn2cc(-c3cc(=O)n4nc(N5CCN(C)CC5)sc4n3)cc(F)c2n1` [Compound 159, 7-(8-fluoro-2-methylimidazo[1,2-α]pyridin-6-yl)-2-(4-methylpiperazin-1-yl)-5H-[1,3,4]thiadiazolo[3,2-α]pyrimidin-5-one], the IC50 in the assay on Target C, in the assay with HTT [2] and in the assay on SMN2 was 1 to 10 µM throughout. Besides, the AC50 in the assay with HTT [1] (setting [3]) and in the assay on HTT [1] (setting [4]) was 1 to 10 µM throughout.
`CN1CCN(c2nc3ncn(-c4ccc5nn(C)cc5c4)c(=O)c3s2)CC1` [Compound 182, 6-(2-methyl-2H-indazol-5-yl)-2-(4-methylpiperazin-1-yl)thiazolo[4,5-d]pyrimidin-7(6H)-one]: the AC50 in the assay with HTT [1] (setting [3]) and with HTT [1] (setting [4]) was 1 to 10 µM in each case. The IC50 with HTT [2] and in the assay with SMN2 was 1 to 10 µM throughout.
For `Cc1cc(-c2cn3c(=O)cc(N4CCN(C)CC4)nc3s2)cc2cn(C)nc12` [Compound 183, 2-(2,7-dimethyl-2H-indazol-5-yl)-7-(4-methylpiperazin-1-yl)-5H-thiazolo[3,2-α]pyrimidin-5-one], the AC50 in the assay on HTT [1] (setting [3]) and in the assay on HTT [1] (setting [4]) was above 10 µM throughout. The IC50 is above 10 µM in the assay on HTT [2] and 1 to 10 µM in the assay on SMN2.
For the compound `Cc1cn2cc(-c3cn4c(=O)cc(N5CCN(C)CC5)nc4s3)cc(F)c2n1` [Compound 184], the AC50 in the assay with HTT [1] (setting [3]) and with HTT [1] (setting [4]) was above 10 µM each time. The concentration for half-maximal inhibition (IC50) is above 10 µM in the assay on HTT [2] and 1 to 10 µM in the assay with SMN2.
Take `Cc1cn2nc(-c3cc(=O)n4cc(N(C)C5CC(C)(C)NC(C)(C)C5)sc4n3)cc(C)c2n1` [Compound 205, 7-(2,8-dimethylimidazo[1,2-b]pyridazin-6-yl)-2-(methyl(2,2,6,6-tetramethylpiperidin-4-yl)amino)-5H-thiazolo[3,2-α]pyrimidin-5-one]: the 50% inhibitory concentration (IC50) with Target C, with HTT [2] and with SMN2 was 1 to 10 µM in each case. For the same compound, the AC50 in the assay on HTT [1] (setting [3]) and with HTT [1] (setting [4]) was 1 to 10 µM each time.
Consider `Cc1cc(-c2nn3c(=O)cc(N4CCNCC4)nc3s2)cc2cn(C)nc12` [Compound 206, 2-(2,7-dimethyl-2H-indazol-5-yl)-7-(piperazin-1-yl)-5H-[1,3,4]thiadiazolo[3,2-α]pyrimidin-5-one], for which the IC50 in the assay on Target C lay in the range of 1 to 10 µM; with HTT [2] it was 1 to 10 µM; in the assay on SMN2, 0.1 to 1 µM. For the same compound, the AC50 with HTT [1] (setting [3]) and in the assay on HTT [1] (setting [4]) was 1 to 10 µM throughout.
Consider `Cc1cn2cc(-c3cc(=O)n4cc(N5CCNC6(CC6)C5)sc4n3)cc(F)c2n1` [Compound 207, 7-(8-fluoro-2-methylimidazo[1,2-α]pyridin-6-yl)-2-(4,7-diazaspiro[2.5]octan-7-yl)-5H-thiazolo[3,2-α]pyrimidin-5-one], for which the IC50 in the assay on Target C was above 10 µM; with HTT [2], above 10 µM; with SMN2, 0.1 to 1 µM. In addition, the AC50 in the assay on HTT [1] (setting [3]) and with HTT [1] (setting [4]) was above 10 µM in each case.
For `Cc1cn2cc(-c3cn4c(=O)cc(N5CCNC6(CC6)C5)nc4s3)cc(F)c2n1` [Compound 208, 2-(8-fluoro-2-methylimidazo[1,2-α]pyridin-6-yl)-7-(4,7-diazaspiro[2.5]octan-7-yl)-5H-thiazolo[3,2-α]pyrimidin-5-one], the IC50 in the assay on Target C, in the assay on HTT [2] and with SMN2 was 1 to 10 µM throughout. Also, the AC50 in the assay on HTT [1] (setting [3]) and in the assay with HTT [1] (setting [4]) was 1 to 10 µM each time.
With `Cc1cn2cc(-c3cc(=O)n4nc(N5CCNC6(CC6)C5)sc4n3)cc(F)c2n1` [Compound 209, 7-(8-fluoro-2-methylimidazo[1,2-α]pyridin-6-yl)-2-(4,7-diazaspiro[2.5]octan-7-yl)-5H-[1,3,4]thiadiazolo[3,2-α]pyrimidin-5-one], the IC50 in the assay with Target C, in the assay on HTT [2] and with SMN2 was 1 to 10 µM throughout. The AC50 with HTT [1] (setting [3]) and with HTT [1] (setting [4]) was 1 to 10 µM in each case.
Regarding `Cc1cc(-c2nn3c(=O)cc(N4CCN(C)CC4)nc3s2)cc2cn(C)nc12` [Compound 210, 2-(2,7-dimethyl-2H-indazol-5-yl)-7-(4-methylpiperazin-1-yl)-5H-[1,3,4]thiadiazolo[3,2-α]pyrimidin-5-one], the IC50 with Target C, in the assay on HTT [2] and with SMN2 was 1 to 10 µM each time. Further, the AC50 in the assay on HTT [1] (setting [3]) and in the assay with HTT [1] (setting [4]) was 1 to 10 µM throughout.
Regarding `Cc1cn2nc(-c3cc(=O)n4cc(N5CCNC6(CC6)C5)sc4n3)cc(C)c2n1` [Compound 211, 7-(2,8-dimethylimidazo[1,2-b]pyridazin-6-yl)-2-(4,7-diazaspiro[2.5]octan-7-yl)-5H-thiazolo[3,2-α]pyrimidin-5-one], the IC50 lay in the range of 1 to 10 µM in the assay with Target C, 1 to 10 µM with HTT [2] and 0.1 to 1 µM in the assay with SMN2. The AC50 in the assay with HTT [1] (setting [3]) and in the assay with HTT [1] (setting [4]) was 1 to 10 µM each time.
Consider `Cc1cn2nc(-c3cn4c(=O)cc(N5CCNC6(CC6)C5)nc4s3)cc(C)c2n1` [Compound 212, 2-(2,8-dimethylimidazo[1,2-b]pyridazin-6-yl)-7-(4,7-diazaspiro[2.5]octan-7-yl)-5H-thiazolo[3,2-α]pyrimidin-5-one], for which the IC50 in the assay on Target C, in the assay with HTT [2] and in the assay on SMN2 was 1 to 10 µM in each case. Further, the AC50 with HTT [1] (setting [3]) and in the assay with HTT [1] (setting [4]) was 1 to 10 µM throughout.
Take `Cc1cn2cc(-c3cn4c(=O)cc(N5CCNCC5)nc4s3)cc(F)c2n1` [Compound 213, 2-(8-fluoro-2-methylimidazo[1,2-α]pyridin-6-yl)-7-(piperazin-1-yl)-5H-thiazolo[3,2-α]pyrimidin-5-one]: the IC50 in the assay with Target C is above 10 µM; in the assay on HTT [2], above 10 µM; in the assay on SMN2, 1 to 10 µM. In addition, the AC50 with HTT [1] (setting [3]) and in the assay on HTT [1] (setting [4]) was above 10 µM in each case.
Consider `Cc1cn2cc(-c3nn4c(=O)cc(N5CCNCC5)nc4s3)cc(F)c2n1` [Compound 214, 2-(8-fluoro-2-methylimidazo[1,2-α]pyridin-6-yl)-7-(piperazin-1-yl)-5H-[1,3,4]thiadiazolo[3,2-α]pyrimidin-5-one], for which the values for the IC50 with Target C, with HTT [2] and in the assay with SMN2 were above 10 µM, 1 to 10 µM and 0.1 to 1 µM, respectively. The AC50 in the assay on HTT [1] (setting [3]) is 1 to 10 µM; with HTT [1] (setting [4]), above 10 µM.

Source of the values: patent publication US20240279239A1, “COMPOUNDS AND METHODS FOR MODULATING SPLICING” (REMIX THERAPEUTICS INC., priority 2020, published 2024).
